Data published in PubChem BioAssay AID248 (DTP/NCI, 2004).
Several values for one entry are separate records, joined by “and”; a condition that tells them apart may be missing. Equal values may be shown once. Toxic doses and inconclusive results are not listed. Rule as the data show it: active = T/C of 150% or more; inactive = T/C below 125%.

Tested on: L1210 leukemia ip in BDF1 mice, survival T/C
Test: NCI In Vivo Anticancer Drug Screen. Data for tumor model L1210 Leukemia (intraperitoneal) in B6D2F1 (BDF1) mice
Conditions: endpoint: mean survival time, higher = longer survival
Method in brief: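 Survival endpoint. Drug-treated group vs vehicle group, expressed as T divided by C. Tumor passaged by transplantation.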

[1] = dose: 100.0 mg/kg/injection, schedule: Q04DX002 (ip), vehicle: Klucel (hydroxypropylcellulose) (HPC)
[2] = dose: 200.0 mg/kg/injection, schedule: Q04DX002 (ip), vehicle: Klucel (hydroxypropylcellulose) (HPC)
[3] = dose: 400.0 mg/kg/injection, schedule: Q04DX002 (ip), vehicle: Klucel (hydroxypropylcellulose) (HPC)
[4] = dose: 100.0 mg/kg/injection, schedule: Q01DX001 (ip), vehicle: saline
[5] = dose: 200.0 mg/kg/injection, schedule: Q01DX001 (ip), vehicle: saline
[6] = dose: 400.0 mg/kg/injection, schedule: Q01DX001 (ip), vehicle: saline
[7] = dose: 100.0 mg/kg/injection, schedule: Q01DX009 (ip), vehicle: other
[8] = dose: 100.0 mg/kg/injection, schedule: Q04DX003 (ip), vehicle: saline
[9] = dose: 200.0 mg/kg/injection, schedule: Q01DX009 (ip), vehicle: other
[10] = dose: 200.0 mg/kg/injection, schedule: Q04DX003 (ip), vehicle: saline
[11] = dose: 400.0 mg/kg/injection, schedule: Q01DX009 (ip), vehicle: other
[12] = dose: 100.0 mg/kg/injection, schedule: Q01DX001 (ip), vehicle: Klucel (hydroxypropylcellulose) (HPC)
[13] = dose: 100.0 mg/kg/injection, schedule: Q01DX009 (ip), vehicle: Klucel (hydroxypropylcellulose) (HPC)
[14] = dose: 100.0 mg/kg/injection, schedule: Q04DX003 (ip), vehicle: Klucel (hydroxypropylcellulose) (HPC)
[15] = dose: 200.0 mg/kg/injection, schedule: Q01DX009 (ip), vehicle: Klucel (hydroxypropylcellulose) (HPC)
[16] = dose: 200.0 mg/kg/injection, schedule: Q04DX003 (ip), vehicle: Klucel (hydroxypropylcellulose) (HPC)
[17] = dose: 400.0 mg/kg/injection, schedule: Q01DX009 (ip), vehicle: Klucel (hydroxypropylcellulose) (HPC)
[18] = dose: 400.0 mg/kg/injection, schedule: Q04DX003 (ip), vehicle: Klucel (hydroxypropylcellulose) (HPC)
[19] = dose: 100.0 mg/kg/injection, schedule: Q04DX003 (ip), vehicle: saline with Tween-80
[20] = dose: 200.0 mg/kg/injection, schedule: Q04DX003 (ip), vehicle: saline with Tween-80
[21] = dose: 50.0 mg/kg/injection, schedule: Q01DX009 (ip), vehicle: Klucel (hydroxypropylcellulose) (HPC)
[22] = dose: 25.0 mg/kg/injection, schedule: Q01DX009 (ip), vehicle: Klucel (hydroxypropylcellulose) (HPC)

Measured: T/C

COc1ccc(CSSP(=S)(OC)c2ccc(OC)cc2)cc1 (centres undefined)
inactive: dose: 100.0 mg/kg/injection, schedule: Q01DX009 (ip), vehicle: saline with Tween-80 91 % of control | dose: 200.0 mg/kg/injection, schedule: Q01DX009 (ip), vehicle: saline with Tween-80 95 % of control | dose: 400.0 mg/kg/injection, schedule: Q01DX009 (ip), vehicle: saline with Tween-80 88 % of control

N#Cc1nc2c(n(O)c1=N)CCC/C2=C\c1ccc(Cl)c(Cl)c1
inactive: [1] 99 % of control | [2] 89 % of control | [3] 92 % of control

Cc1noc(/N=C/c2cccc(Cl)c2)c1C
inactive: [4] 101 % of control | [5] 105 % of control | [6] 101 % of control

Cc1noc(/N=C/c2ccccc2)c1C
inactive: [7] 95 % of control | [8] 103 % of control | [9] 102 % of control | [10] 103 % of control | [11] 107 % of control | dose: 400.0 mg/kg/injection, schedule: Q04DX003 (ip), vehicle: saline 96 % of control

O=C1C(c2ccccc2)=C(c2ccccc2)C(c2ccccc2)C1c1ccccc1 (centres undefined)
inactive: dose: 100.0 mg/kg/injection, schedule: Q04DX002 (ip), vehicle: gum acacia 100 % of control | dose: 200.0 mg/kg/injection, schedule: Q04DX002 (ip), vehicle: gum acacia 87 % of control | dose: 400.0 mg/kg/injection, schedule: Q04DX002 (ip), vehicle: gum acacia 90 % of control

CCOc1ccc(C2CCCCCC2OS(C)(=O)=O)cc1 (centres undefined)
inactive: [12] 105 % of control | [13] 95 % of control | [14] 97 % of control | dose: 200.0 mg/kg/injection, schedule: Q01DX001 (ip), vehicle: Klucel (hydroxypropylcellulose) (HPC) 96 % of control | [15] 98 % of control | [16] 103 % of control | dose: 400.0 mg/kg/injection, schedule: Q01DX001 (ip), vehicle: Klucel (hydroxypropylcellulose) (HPC) 100 % of control | [17] 93 % of control | [18] 101 % of control

Cc1[nH]ncc1Br
inactive: [19] 98 % of control | [20] 92 % of control | dose: 400.0 mg/kg/injection, schedule: Q04DX003 (ip), vehicle: saline with Tween-80 103 % of control

S=C(S)Nc1ccccc1
inactive: dose: 25.0 mg/kg/injection, schedule: Q01DX001 (ip), vehicle: Klucel (hydroxypropylcellulose) (HPC) 95 % of control | dose: 50.0 mg/kg/injection, schedule: Q01DX001 (ip), vehicle: Klucel (hydroxypropylcellulose) (HPC) 92 % of control | [12] 94 % of control and 95 % of control

O=[N+]([O-])c1ccc(S(=O)c2ccc([N+](=O)[O-])cc2)cc1
inactive: [13] 108 % of control | [14] 98 % of control | [15] 95 % of control | [16] 98 % of control | [17] 101 % of control | [18] 93 % of control

CCCCNC(=O)OC/C=C/CC(Cl)(Cl)Cl
inactive: dose: 100.0 mg/kg/injection, schedule: Q01DX009 (sc), vehicle: olive oil, sesame oil, peanut oil 103 % of control | dose: 100.0 mg/kg/injection, schedule: Q04DX003 (sc), vehicle: olive oil, sesame oil, peanut oil 95 % of control | dose: 200.0 mg/kg/injection, schedule: Q01DX009 (sc), vehicle: olive oil, sesame oil, peanut oil 101 % of control | dose: 200.0 mg/kg/injection, schedule: Q04DX003 (sc), vehicle: olive oil, sesame oil, peanut oil 108 % of control | dose: 400.0 mg/kg/injection, schedule: Q01DX009 (sc), vehicle: olive oil, sesame oil, peanut oil 101 % of control | dose: 400.0 mg/kg/injection, schedule: Q04DX003 (sc), vehicle: olive oil, sesame oil, peanut oil 94 % of control

ICC12CC=CCC1(CI)CCCC2 (centres undefined)
inactive: dose: 150.0 mg/kg/injection, schedule: Q04DX002 (ip), vehicle: Klucel (hydroxypropylcellulose) (HPC) 105 % of control | dose: 300.0 mg/kg/injection, schedule: Q04DX002 (ip), vehicle: Klucel (hydroxypropylcellulose) (HPC) 97 % of control

[N-]=[N+]=NC(c1ccccc1)(c1ccccc1)c1ccccc1
inactive: dose: 100.0 mg/kg/injection, schedule: Q04DX002 (ip), vehicle: saline with Tween-80 97 % of control | dose: 200.0 mg/kg/injection, schedule: Q04DX002 (ip), vehicle: saline with Tween-80 97 % of control | dose: 400.0 mg/kg/injection, schedule: Q04DX002 (ip), vehicle: saline with Tween-80 97 % of control

O=C(O)C1C=CCC2C(=O)OC(=O)C12 (centres undefined)
inactive: dose: 75.0 mg/kg/injection, schedule: Q01DX001 (ip), vehicle: saline 102 % of control | dose: 150.0 mg/kg/injection, schedule: Q01DX001 (ip), vehicle: saline 102 % of control | dose: 300.0 mg/kg/injection, schedule: Q01DX001 (ip), vehicle: saline 96 % of control

COC(C)C(Br)C(=O)O (centres undefined)
inactive: dose: 50.0 mg/kg/injection, schedule: Q01DX009 (ip), vehicle: saline 98 % of control | dose: 100.0 mg/kg/injection, schedule: Q01DX009 (ip), vehicle: saline 95 % of control | [8] 88 % of control | dose: 200.0 mg/kg/injection, schedule: Q01DX009 (ip), vehicle: saline 90 % of control | [10] 90 % of control

Oc1ccccc1C=NC1CCCCC1.Oc1ccccc1C=NC1CCCCC1.[Ni+2]
inactive: [14] 96 % of control | [8] 94 % of control | [16] 92 % of control | [10] 96 % of control | [18] 90 % of control

COc1ccc(NC(=O)Nc2cc([N+](=O)[O-])ccc2C)c(OC)c1
inactive: [1] 92 % of control | [2] 108 % of control | [3] 92 % of control

CC1=CCCC(C)(C)C1C=C1C(=O)NC(=S)NC1=O (centres undefined)
inactive: [21] 92 % of control | [13] 98 % of control | [15] 109 % of control

CN1CCN(C(=O)C2C(c3ccccc3)C2c2ccc(Cl)c(Cl)c2)CC1 (centres undefined)
inactive: dose: 12.5 mg/kg/injection, schedule: Q04DX002 (ip), vehicle: saline with Tween-80 95 % of control and 98 % of control | dose: 25.0 mg/kg/injection, schedule: Q04DX002 (ip), vehicle: saline with Tween-80 103 % of control | dose: 50.0 mg/kg/injection, schedule: Q04DX002 (ip), vehicle: saline with Tween-80 92 % of control and 88 % of control

O=C1CCCC(=O)NNC(=O)Nc2ccccc2NC(=O)NN1
inactive: dose: 50.0 mg/kg/injection, schedule: Q01DX001 (ip), vehicle: saline 102 % of control | [4] 90 % of control | [5] 96 % of control | [6] 96 % of control

NC(CCl)=NCCCN1CCOCC1
inactive: dose: 100.0 mg/kg/injection, schedule: Q04DX002 (ip), vehicle: saline 114 % of control | dose: 200.0 mg/kg/injection, schedule: Q04DX002 (ip), vehicle: saline 97 % of control

NS(=O)(=O)c1ccc(N=Cc2cc(Cl)cc(Cl)c2O)cc1
inactive: [13] 101 % of control | [15] 106 % of control | [17] 106 % of control

COc1ccccc1C(C(C)C)C(C)C
inactive: [19] 105 % of control | [20] 101 % of control

O=C(O)/C=C\Br
inactive: [22] 91 % of control | dose: 50.0 mg/kg/injection, schedule: Q01DX005 (ip), vehicle: Klucel (hydroxypropylcellulose) (HPC) 95 % of control | [21] 106 % of control | dose: 100.0 mg/kg/injection, schedule: Q01DX005 (ip), vehicle: Klucel (hydroxypropylcellulose) (HPC) 103 % of control | [13] 98 % of control

O=CNc1cc(Cl)cc(Cl)c1
inactive: [22] 97 % of control | [21] 94 % of control | [13] 114 % of control

Cc1cc(C)c(-c2cc(O)c(C)cc2O)c(C)c1
inactive: dose: 25.0 mg/kg/injection, schedule: Q01DX009 (ip), vehicle: other 103 % of control | dose: 50.0 mg/kg/injection, schedule: Q01DX009 (ip), vehicle: other 99 % of control | [7] 101 % of control | [9] 97 % of control | [11] 100 % of control

Nc1ccc(C(=O)NCC(=O)O)cc1
inactive: [1] 93 % of control | [2] 104 % of control | [3] 100 % of control
